What all share (experiment): biochemical
Design in all cases: Invitrogen SelectScreen kinase panel, percent inhibition at 1 uM, ATP at Km
Holding throughout (settings): read-out: Invitrogen KSS %Inh at 1 µM

One experiment concerns the target AURKA (Aurora A) (Homo sapiens, UniProt O14965). How it is done:
(§1) The METi and RAFi were screened against kinase panels (SelectScreen, Invitrogen; University of Dundee, Division of Signal Transduction Therapy, UK; Upstate Biotechnology/Millipore, Billerica, MA). In these selectivity assays the concentration of ATP was set to the Km value of ATP for each kinase tested to allow for a relative potency comparison between the various kinases. The compounds were tested at 1 µM final concentration. […] Supplementary file pone.0039653.s002.pdf: Figure S2 Kinase Selectivity Screen of RAFi. (A) Kinase selectivity screen (KSS) performed at University of Dundee (Division of Signal Transduction Therapy). Values in % inhibition of phosphorylation given 1 µM of RAFi compared to control. (B) KSS performed at Invitrogen (Selectscreen Service) compared to control. Values in % inhibition of phosphorylation given 1 µM of RAFi. (C) Cell based dose response kinase inhibition of indicated kinases by RAFi. (PDF) Click here for additional data file.

For a further experiment, the target named is CDK2/CyclinA (Homo sapiens, UniProt P24941). How it is done:
as §1

The target of the next experiment is CSK (Homo sapiens, UniProt P41240). How it is done:
as §1

For another experiment, the target named is FGR (Homo sapiens, UniProt P09769). How it is done:
as §1

The next experiment deals with FLT1 (VEGFR1) (Homo sapiens, UniProt P17948). How it is done:
as §1

Another experiment concerns the target IKBKB (IKK beta) (Homo sapiens, UniProt O14920). The method, then: as §1
The next experiment addresses LCK (Homo sapiens, UniProt P06239). How it is done: as §1
The next experiment addresses MAPK12 (p38 gamma) (Homo sapiens, UniProt P53778). The method, then: as §1
The target in the next experiment is MAPK3 (ERK1) (Homo sapiens, UniProt P27361). The method, then: as §1
A further experiment has as its target MAPKAPK2 (Homo sapiens, UniProt P49137). How it is done: as §1
The target of another experiment is MARK2 (Homo sapiens, UniProt Q7KZI7). The method, then: as §1
The next experiment addresses MET M1250T (Homo sapiens, UniProt P08581, M1250T). The method, then:
as §1

Another experiment has as its target PIM1 (Homo sapiens, UniProt P11309). The method, then:
as §1

For another experiment, the target named is PLK2 (Homo sapiens, UniProt Q9NYY3). How it is done: as §1
Sequence of PLK2 (Q9NYY3 whole entry): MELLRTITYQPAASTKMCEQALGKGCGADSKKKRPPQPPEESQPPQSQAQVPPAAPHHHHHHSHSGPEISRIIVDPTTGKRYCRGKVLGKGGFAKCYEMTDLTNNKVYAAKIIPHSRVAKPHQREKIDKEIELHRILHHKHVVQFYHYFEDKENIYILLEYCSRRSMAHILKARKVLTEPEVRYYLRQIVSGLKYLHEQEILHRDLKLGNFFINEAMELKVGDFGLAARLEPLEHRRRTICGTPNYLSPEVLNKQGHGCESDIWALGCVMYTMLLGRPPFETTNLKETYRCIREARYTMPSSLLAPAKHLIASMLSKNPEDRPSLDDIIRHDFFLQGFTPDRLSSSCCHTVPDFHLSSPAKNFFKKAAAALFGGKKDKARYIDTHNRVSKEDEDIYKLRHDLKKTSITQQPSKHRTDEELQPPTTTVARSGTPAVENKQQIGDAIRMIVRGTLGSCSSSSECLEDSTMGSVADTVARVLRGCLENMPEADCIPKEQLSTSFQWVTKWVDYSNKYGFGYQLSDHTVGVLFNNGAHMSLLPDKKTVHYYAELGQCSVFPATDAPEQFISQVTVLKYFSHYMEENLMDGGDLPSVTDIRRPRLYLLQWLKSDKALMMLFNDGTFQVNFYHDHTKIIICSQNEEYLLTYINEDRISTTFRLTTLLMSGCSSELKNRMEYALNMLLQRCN
The next experiment deals with PRKACA (PKA) (Homo sapiens, UniProt P17612). How it is done: as §1
Another experiment deals with PRKD1 (PKC mu) (Homo sapiens, UniProt Q15139). How it is done: as §1
Sequence of PRKD1 (PKC mu) (Q15139 whole entry): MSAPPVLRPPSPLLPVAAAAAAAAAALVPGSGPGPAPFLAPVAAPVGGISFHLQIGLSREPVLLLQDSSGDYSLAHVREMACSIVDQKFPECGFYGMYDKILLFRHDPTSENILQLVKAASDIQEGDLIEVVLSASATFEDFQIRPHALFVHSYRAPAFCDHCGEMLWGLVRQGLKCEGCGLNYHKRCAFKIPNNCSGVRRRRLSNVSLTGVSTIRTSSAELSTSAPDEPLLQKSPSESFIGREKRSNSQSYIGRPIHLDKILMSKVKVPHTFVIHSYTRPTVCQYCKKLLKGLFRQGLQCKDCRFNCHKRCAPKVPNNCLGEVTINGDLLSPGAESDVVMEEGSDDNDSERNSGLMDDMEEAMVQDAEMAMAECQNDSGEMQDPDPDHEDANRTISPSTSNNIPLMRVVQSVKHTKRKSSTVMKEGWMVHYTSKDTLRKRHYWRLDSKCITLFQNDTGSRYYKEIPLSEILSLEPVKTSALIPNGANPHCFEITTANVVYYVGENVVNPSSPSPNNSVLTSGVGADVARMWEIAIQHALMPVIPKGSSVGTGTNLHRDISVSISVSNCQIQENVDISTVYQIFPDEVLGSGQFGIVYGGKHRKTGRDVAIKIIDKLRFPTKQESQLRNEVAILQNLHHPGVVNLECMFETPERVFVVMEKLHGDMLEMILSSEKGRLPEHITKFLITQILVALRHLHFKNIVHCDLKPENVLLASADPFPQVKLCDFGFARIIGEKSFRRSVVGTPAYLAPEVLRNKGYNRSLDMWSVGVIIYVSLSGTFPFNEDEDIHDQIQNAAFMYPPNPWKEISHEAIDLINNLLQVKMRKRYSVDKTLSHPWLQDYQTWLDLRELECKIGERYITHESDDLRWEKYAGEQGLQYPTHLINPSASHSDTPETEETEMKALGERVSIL
The target of another experiment is PTK6 (Brk) (Homo sapiens, UniProt Q13882). How it is done:
as §1

The next experiment has as its target RAF1 (cRAF) Y340D Y341D (Homo sapiens, UniProt P04049, Y340D/Y341D). The method, then: as §1
Another experiment addresses RET (Homo sapiens, UniProt P07949). How it is done:
as §1

The target in the next experiment is RPS6KA3 (RSK2) (Homo sapiens, UniProt P51812). The method, then: as §1
Sequence of RPS6KA3 (RSK2) (P51812 whole entry): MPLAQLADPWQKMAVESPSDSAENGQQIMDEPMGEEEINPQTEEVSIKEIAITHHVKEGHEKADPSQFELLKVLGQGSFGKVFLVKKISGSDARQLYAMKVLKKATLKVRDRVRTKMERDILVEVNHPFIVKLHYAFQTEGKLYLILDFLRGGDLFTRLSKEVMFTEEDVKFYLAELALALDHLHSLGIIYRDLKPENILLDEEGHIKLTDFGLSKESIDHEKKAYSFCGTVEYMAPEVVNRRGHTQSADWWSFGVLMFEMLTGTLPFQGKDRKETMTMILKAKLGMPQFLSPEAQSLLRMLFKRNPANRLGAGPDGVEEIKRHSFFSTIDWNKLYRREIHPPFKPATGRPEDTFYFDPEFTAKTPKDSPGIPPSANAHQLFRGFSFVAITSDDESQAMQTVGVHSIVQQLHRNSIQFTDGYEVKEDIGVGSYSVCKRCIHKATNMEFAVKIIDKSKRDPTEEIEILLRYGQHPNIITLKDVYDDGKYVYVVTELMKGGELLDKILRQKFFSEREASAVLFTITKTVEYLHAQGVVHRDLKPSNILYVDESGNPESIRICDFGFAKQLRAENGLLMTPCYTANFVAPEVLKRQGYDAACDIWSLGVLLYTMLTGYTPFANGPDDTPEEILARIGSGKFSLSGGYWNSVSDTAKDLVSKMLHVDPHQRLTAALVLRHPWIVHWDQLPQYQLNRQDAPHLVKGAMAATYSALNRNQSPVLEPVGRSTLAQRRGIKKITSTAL
In a further experiment the target is SRC (Homo sapiens, UniProt P12931). The method, then:
as §1

In another experiment the target is TBK1 (Homo sapiens, UniProt Q9UHD2). The method, then:
as §1

Sequence of FGR (P09769 whole entry): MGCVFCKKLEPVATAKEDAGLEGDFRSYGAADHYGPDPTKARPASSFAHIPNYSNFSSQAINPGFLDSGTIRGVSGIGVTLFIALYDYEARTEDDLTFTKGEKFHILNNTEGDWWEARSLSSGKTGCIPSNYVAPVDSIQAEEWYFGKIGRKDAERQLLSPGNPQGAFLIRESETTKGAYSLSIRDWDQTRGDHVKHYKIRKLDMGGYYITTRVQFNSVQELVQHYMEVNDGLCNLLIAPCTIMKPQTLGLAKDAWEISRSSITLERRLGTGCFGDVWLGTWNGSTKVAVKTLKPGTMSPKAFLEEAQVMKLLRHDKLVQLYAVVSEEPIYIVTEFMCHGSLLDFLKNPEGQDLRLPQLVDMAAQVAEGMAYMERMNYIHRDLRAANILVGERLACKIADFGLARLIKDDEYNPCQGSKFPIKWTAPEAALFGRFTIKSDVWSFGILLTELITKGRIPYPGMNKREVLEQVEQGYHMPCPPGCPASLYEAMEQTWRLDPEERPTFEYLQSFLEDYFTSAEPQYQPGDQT
Sequence of IKBKB (IKK beta) (O14920 whole entry): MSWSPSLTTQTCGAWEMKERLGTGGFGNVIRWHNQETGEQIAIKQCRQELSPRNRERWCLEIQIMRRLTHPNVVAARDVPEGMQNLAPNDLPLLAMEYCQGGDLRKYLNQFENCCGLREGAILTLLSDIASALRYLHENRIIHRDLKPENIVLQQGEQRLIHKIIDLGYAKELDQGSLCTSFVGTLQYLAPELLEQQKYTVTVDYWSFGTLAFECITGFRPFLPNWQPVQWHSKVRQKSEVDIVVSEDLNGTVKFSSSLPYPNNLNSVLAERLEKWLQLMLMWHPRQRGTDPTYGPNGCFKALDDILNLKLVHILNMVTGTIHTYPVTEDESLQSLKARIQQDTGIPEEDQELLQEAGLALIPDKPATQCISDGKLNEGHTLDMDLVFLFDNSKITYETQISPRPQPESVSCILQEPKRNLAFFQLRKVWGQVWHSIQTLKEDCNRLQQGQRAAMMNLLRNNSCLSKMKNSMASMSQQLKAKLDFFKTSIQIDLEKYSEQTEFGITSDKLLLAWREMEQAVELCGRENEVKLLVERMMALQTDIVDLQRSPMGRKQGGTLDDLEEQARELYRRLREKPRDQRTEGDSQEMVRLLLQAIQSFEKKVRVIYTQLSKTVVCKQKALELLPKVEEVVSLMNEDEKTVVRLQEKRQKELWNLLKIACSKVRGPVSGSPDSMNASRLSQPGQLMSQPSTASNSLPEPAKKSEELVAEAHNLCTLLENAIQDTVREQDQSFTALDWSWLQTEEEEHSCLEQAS
Sequence of RET (P07949 whole entry): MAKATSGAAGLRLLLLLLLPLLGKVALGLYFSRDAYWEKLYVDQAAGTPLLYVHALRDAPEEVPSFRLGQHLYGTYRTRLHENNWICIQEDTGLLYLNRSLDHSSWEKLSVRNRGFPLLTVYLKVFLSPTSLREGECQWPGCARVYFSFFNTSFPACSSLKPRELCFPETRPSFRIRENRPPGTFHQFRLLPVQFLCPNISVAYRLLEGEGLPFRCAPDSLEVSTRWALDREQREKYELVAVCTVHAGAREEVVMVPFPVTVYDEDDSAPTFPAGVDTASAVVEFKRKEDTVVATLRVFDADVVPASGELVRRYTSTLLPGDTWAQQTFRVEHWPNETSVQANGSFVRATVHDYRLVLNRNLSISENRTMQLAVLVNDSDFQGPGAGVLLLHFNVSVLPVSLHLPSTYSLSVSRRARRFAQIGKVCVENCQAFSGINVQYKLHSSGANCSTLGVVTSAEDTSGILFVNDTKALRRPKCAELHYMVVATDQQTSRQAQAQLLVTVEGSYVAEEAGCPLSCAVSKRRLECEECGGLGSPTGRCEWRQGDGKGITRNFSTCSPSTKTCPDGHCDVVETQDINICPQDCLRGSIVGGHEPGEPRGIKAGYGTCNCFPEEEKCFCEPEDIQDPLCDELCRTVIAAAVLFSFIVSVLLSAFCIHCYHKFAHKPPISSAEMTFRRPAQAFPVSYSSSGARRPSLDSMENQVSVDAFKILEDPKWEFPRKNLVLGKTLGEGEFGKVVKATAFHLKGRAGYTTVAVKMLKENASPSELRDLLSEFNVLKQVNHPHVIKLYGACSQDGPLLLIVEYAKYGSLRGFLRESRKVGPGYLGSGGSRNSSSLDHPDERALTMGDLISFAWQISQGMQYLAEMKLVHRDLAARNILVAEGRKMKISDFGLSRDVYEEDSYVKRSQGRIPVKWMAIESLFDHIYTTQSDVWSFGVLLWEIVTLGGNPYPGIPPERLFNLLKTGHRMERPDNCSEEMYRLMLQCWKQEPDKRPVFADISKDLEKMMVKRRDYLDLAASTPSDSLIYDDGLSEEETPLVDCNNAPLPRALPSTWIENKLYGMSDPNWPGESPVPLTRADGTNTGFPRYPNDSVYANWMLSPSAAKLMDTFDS
Sequence of PIM1 (P11309 whole entry): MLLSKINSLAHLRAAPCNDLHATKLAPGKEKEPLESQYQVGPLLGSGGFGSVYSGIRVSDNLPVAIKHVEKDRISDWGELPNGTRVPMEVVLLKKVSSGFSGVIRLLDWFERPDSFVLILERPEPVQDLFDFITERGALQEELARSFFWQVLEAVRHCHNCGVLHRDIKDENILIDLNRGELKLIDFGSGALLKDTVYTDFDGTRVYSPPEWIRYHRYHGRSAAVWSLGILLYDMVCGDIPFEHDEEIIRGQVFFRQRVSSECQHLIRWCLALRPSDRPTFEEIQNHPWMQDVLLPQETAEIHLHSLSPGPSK

Take `N#CCCNc1nccc(-c2cn(CC(F)F)nc2-c2cnc3[nH]ccc3c2)n1` [RAFi, PF-04880594]: the inhibition at 1 µM at AURKA (Aurora A) stood at 15%; on CDK2/CyclinA, 18%; at CSK it was 1%; at FGR, 2%; on FLT1 (VEGFR1) it was 2%; on IKBKB (IKK beta), 0%. For the same compound, the inhibition at 1 µM at LCK was determined as 15%; on MAPK12 (p38 gamma), 2%; at MAPK3 (ERK1), 28%; on MAPKAPK2, 3%; on MARK2, 9%; on MET M1250T, 7%. Further, the inhibition at 1 µM is 2% on PIM1; 37% on PLK2; -1% at PRKACA (PKA); 37% on PRKD1 (PKC mu); 5% on PTK6 (Brk); 95% at RAF1 (cRAF) Y340D Y341D. The inhibition at 1 µM on RET is 12%; at RPS6KA3 (RSK2) it was -9%; on SRC, 1%; at TBK1, -7%.

The values are drawn from article PMC3382171 (PLoS ONE, 2012).
